In patent US10961510B2, “Exosome active formulation for promoting endothelial cell angiogenesis, and preparation method and application” (INSTITUTE OF MICROCIRCULATION of the CHINESE ACADEMY OF …, priority 2018, dated 2021):

System: human umbilical vein endothelial cells (HUVECs)
Experiment: Angiogenesis (tube formation) ability of HUVECs on BME-coated 96-well plate, total branching length by Image J
Type: cell-based
Conditions: 10 ng/mL TNF-α alone, 18 hours intervention, compared with the Con group, P=0.002
Protocol: The angiogenesis ability of human umbilical vein endothelial cells (HUVECs) was detected by using a 96-well plate coated with a basement membrane extract (BME). 50 μL of a BME solution was added in each well, which was placed in a cell incubator at 37° C. for 30 minutes to form a jelly substance. 10000 endothelial cells were inoculated in each well, and the volume of the endothelial cell culture medium was 100 μL. […]
According to the real-time observation for the angiogenesis morphology, when each of the above groups was subjected to intervention treatment for 18 hours, the angiogenesis morphology of each group reached a status for the optimum observation and quantitation. […]

Question: With TNF-α as the substance, how does the “endothelial cell angiogenesis (total branching length of each view field)” value read?
Answer: The value was “significantly inhibit endothelial cell angiogenesis”.
